In US20120277211A1, “METHODS AND COMPOSITIONS FOR THE TREATMENT OF PSYCHOTIC DISORDERS THROUGH THE IDENTIFICATION OF THE SULT4A1-1 HAPLOTYPE” (priority 2009, published 2012):
Like-named read-outs stand apart in the source and are kept apart here. Marks after values point to notes of the source that are not given here.

Assays:
schizophrenia patients [1] = experiment: CATIE: months of successful treatment measured by the CGI scale (TMSUCC1); assay type: in vivo, human
Description: The CATIE clinical data set included Clinical Global Impression (CGI) Scale, an observer-provided assessment of the psychiatric health of the patient (Stroup et al., 2003; Guy 1976). Patients are rated with the CGI Scale from 1 to 7, with higher scores indicating greater severity of illness. The CATIE study provided a response variable that measured the time (in months) of successful treatment as measured by the CGI scale (“TMSUCC1” in the CATIE data).

[2] = test system: unsegmented patient populations; details: cited from earlier work
schizophrenia patients [3] = details: Phase II; for Responders: decrease PANSS ≧20%, LOCF
schizophrenia patients [4] = test system: schizophrenia patients
Description: For the analyses shown in Tables 22-24, SULT4A1-1 haplotype status was assigned as describe in Example 3, and standard statistical survival analysis using Cox's proportional hazards model was used to determine the relative risk (hazard) of discontinuing drug use. The Hazard Ratio (HR) measures the risk of an event (in this case, switching or discontinuation from the drug) relative to patient exposure or status (in this case, SULT4A1-1 positive status).
As describe in Example 11, Hazard Ratio (HR) measures the risk of an event (in this case, switching or discontinuation from the drug) relative to patient exposure or status (in this case, SULT4A1-1 status).

[5] = test system: Caucasian schizophrenia patients; experiment: CATIE: time to discontinuation for all causes by SULT4A1-1 status; assay type: in vivo, human
Description: The primary endpoint for the CATIE study was time to discontinuation for all causes (Lieberman et al., 2005). Thus the inventors evaluated the effect of SULT41-1 status on this important parameter.

[6] = test system: African American schizophrenia patients; experiment: CATIE: change in total PANSS (LOCF) by SULT4A1-1 haplotype status, African Americans; assay type: in vivo, human; details: for Number of individuals with change in total PANSS ≦−20% (responders) / Number of individuals with change in total PANSS ≧−20% (non-responders): LOCF
Experimental: The design of the CATIE study has been described in detail by others (Lieberman et al., 2005; Stroup et al., 2003). […] A total of 738 subjects consented to provide DNA for genetic study. […] Retrospective genetic analyses, judged to be exempt from human studies requirements by an IRB, were conducted in the current study. All tested patients were studied using well established clinical endpoints comparing baseline, intermediate, and last observation carried forward (LOCF) for the PANSS scores using CATIE data. […] To remove time on drug as a variable for the CATIE trial, analysis was limited to only those patients who were randomized to a different drug following the initial washout period (drug switchers).

[7] = test system: Caucasian schizophrenia patients; experiment: CATIE: hospitalization due to exacerbation of psychosis by SULT4A1-1 status; assay type: in vivo, human
Description: To assess if SULT4A1-1 status impacts the risk of hospitalization in Caucasians, the inventors assigned SULT4A1-1 status to each CATIE subject and evaluated hospitalization events due to exacerbation of psychosis. For this analysis, the inventors assigned a dichotomous value (positive or negative) for hospitalization status to subjects in each phase of the trial based on only the first hospitalization event for a given patient in that phase. Patients participating in Phases 1, 2, and/or 3 were included in the totals for the appropriate drug.
A Kaplan-Meier survival analysis was performed to determine whether there was a difference between the survival (hospitalization) rates for the SULT4A1-1 negative and SULT4A1-1 positive patient populations treated with each of the atypical antipsychotics. Survival plots model the fraction of the population that survived (i.e., no hospitalization event) as a function of time.

[8] = SULT4A1-1 negative risperidone / SULT4A1-1 negative all other drugs
[9] = Unsegmented risperidone / Unsegmented all other drugs

Cc1nc2n(c(=O)c1CCN1CCC(c3noc4cc(F)ccc34)CC1)CCCC2 [Risperidone]
Length of successful treatment (CGI Months), Mean (schizophrenia patients [1]; SULT4A1-1 negative): 6.88 Months | Length of successful treatment (CGI Months), Mean (schizophrenia patients [1]; SULT4A1-1 positive): 1.76 Months | Length of successful treatment (CGI Months), Mean (schizophrenia patients [1]; Unsegmented): 5.79 Months | Effect Size vs. FGA ([2]; first generation antipsychotics, Davis et al. (2003)): −0.25 | Effect Size vs. Placebo ([2]; meta-analysis, Leucht et al. (2009), negative = greater reduction in PANSS): −0.59 | Mean difference in total PANSS score between olanzapine and labelled drug, Meta-analysis ([2]; unsegmented populations, Leucht et al. (2009)): −1.9 | % Responders (schizophrenia patients [3]; SULT4A1-1 Negative): 33.3% | Nonresponders (schizophrenia patients [3]; SULT4A1-1 Negative): 8 | Responders (schizophrenia patients [3]; SULT4A1-1 Negative): 4 | % Responders (schizophrenia patients [3]; SULT4A1-1 Positive): 0% | Nonresponders (schizophrenia patients [3]; SULT4A1-1 Positive): 1 | Responders (schizophrenia patients [3]; SULT4A1-1 Positive): 0 | HR, all-cause discontinuation (schizophrenia patients [4]; [8]): 0.79^a | HR, discontinuation due to lack of efficacy (schizophrenia patients [4]; [8]): 0.88^a | HR, all-cause discontinuation (schizophrenia patients [4]; SULT4A1-1 positive risperidone / SULT4A1-1 positive all other drugs): 1.48^a | HR, all-cause discontinuation (schizophrenia patients [4]; [9]): 0.91^a | HR, discontinuation due to lack of efficacy (schizophrenia patients [4]; [9]): 1.09^a | Time to discontinuation, mean ([5]; SULT4A1-1 negative): 11.3 Months | Time to discontinuation, mean ([5]; SULT4A1-1 positive): 8.0*** Months | Number of individuals with change in total PANSS ≦−20% (responders) ([6]; SULT4A1-1 negative): 7 | Number of individuals with change in total PANSS ≧−20% (non-responders) ([6]; SULT4A1-1 negative): 34 | Responders ([6]; SULT4A1-1 positive): 60% | Number of individuals with change in total PANSS ≦−20% (responders) ([6]; SULT4A1-1 positive): 3 | Number of individuals with change in total PANSS ≧−20% (non-responders) ([6]; SULT4A1-1 positive): 2 | HOSP, number of patients hospitalized ([7]; SULT4A1-1 negative): 16 | HOSP, rate of hospitalization ([7]; SULT4A1-1 negative): 13% | HOSP, number of patients hospitalized ([7]; SULT4A1-1 positive): 4 | HOSP, rate of hospitalization ([7]; SULT4A1-1 positive): 11.1% | HOSP, rate of hospitalization ([7]; Unsegmented): 12.6% | HOSP, number of patients hospitalized ([7]; Unsegmented, Phases 1, 2 and/or 3, first event): 20 | Kaplan-Meier: difference between survival (no hospitalization) rates of SULT4A1-1 negative and positive patients ([7]; per drug): not statistically significant
